Measurements as given in ChEMBL document CHEMBL1124317, “Rationale for the synthesis and preliminary biological evaluation of highly active new antitumor nitrosoureido sugars” (J Med Chem, 1989).

Tests used:
Mus musculus [1] = experiment: Anti tumor activity l when treated to mice with L1210 leukemia with 1.25 mg/kg dose of compound intraperitoneally was expressed as percent of treated to control (T/C %); format: functional; conditions: route intraperitoneal
Mus musculus [2] = experiment: Anti tumor activity l when treated to mice with L1210 leukemia with 2.5 mg/kg dose of compound intraperitoneally was expressed as percent of treated to control (T/C %); format: functional; conditions: route intraperitoneal
Mus musculus [3] = experiment: Anti tumor activity l when treated to mice with L1210 leukemia with 5 mg/kg dose of compound intraperitoneally was expressed as percent of treated to control (T/C %); format: functional; conditions: route intraperitoneal
Mus musculus [4] = experiment: The number of L1210 leukemia mice survived after 30 days with compound in aqueous solution injected by a dose of 5 mg/kg intraperitoneally; 7/10; format: functional; conditions: route intraperitoneal
Mus musculus [5] = experiment: The number of L1210 leukemia mice survived after 30 days with compound injected by a dose of 1.25 mg/kg intraperitoneally; 0/8; format: functional; conditions: route intraperitoneal
Mus musculus [6] = experiment: The number of L1210 leukemia mice survived after 30 days with compound injected by a dose of 2.5 mg/kg intraperitoneally; 0/8; format: functional; conditions: route intraperitoneal
Mus musculus [7] = experiment: The number of L1210 leukemia mice survived after 30 days with compound injected by a dose of 5 mg/kg intraperitoneally; 8/8; format: functional; conditions: route intraperitoneal
Mus musculus [8] = experiment: The number of L1210 leukemia mice survived after 60 days with compound in aqueous solution injected by a dose of 10 mg/kg intraperitoneally; 0/10; format: functional; conditions: route intraperitoneal
Mus musculus [9] = experiment: Anti tumor activity in olive oil when treated to mice with L1210 leukemia with 10 mg/kg dose of compound intraperitoneally was expressed as percent of treated to control (T/C %); format: functional; conditions: route intraperitoneal
Mus musculus [10] = experiment: Anti tumor activity in olive oil when treated to mice with L1210 leukemia with 5 mg/kg dose of compound intraperitoneally was expressed as percent of treated to control (T/C %); format: functional; conditions: route intraperitoneal
Mus musculus [11] = experiment: Median survival time of the non surviving mice; treated with 5 mg/kg of compound in olive oil to mice with L1210 leukemia; 23-49; format: functional
Mus musculus [12] = experiment: The number of L1210 leukemia mice survived after 60 days with compound in aqueous solution injected by a dose of 5 mg/kg intraperitoneally; 4/10; format: functional; conditions: route intraperitoneal
Mus musculus [13] = experiment: The number of L1210 leukemia mice survived after 60 days with compound injected by a dose of 5 mg/kg intraperitoneally; 4/8; format: functional; conditions: route intraperitoneal
Mus musculus [14] = experiment: The number of L1210 leukemia mice survived after 30 days with compound injected by a dose of 0.625 mg/kg intraperitoneally; 0/8; format: functional; conditions: route intraperitoneal
Mus musculus [15] = experiment: Anti tumor activity l when treated to mice with L1210 leukemia with 0.625 mg/kg dose of compound intraperitoneally was expressed as percent of treated to control (T/C %); format: functional; conditions: route intraperitoneal
Mus musculus [16] = experiment: The number of L1210 leukemia mice survived after 30 days with compound in aqueous solution injected by a dose of 10 mg/kg intraperitoneally; 0/10; format: functional; conditions: route intraperitoneal
Mus musculus [17] = experiment: Median survival time of the non surviving mice; treated with 10 mg/kg of compound in olive oil to mice with L1210 leukemia; 15-25; format: functional
Mus musculus [18] = experiment: Median survival time of the non surviving mice; treated with 5 mg/kg of compound to mice with L1210 leukemia; 43-54; format: functional
Mus musculus [19] = experiment: Median survival time of the non surviving mice; treated with 0.625 mg/kg of compound to mice with L1210 leukemia; 10-11; format: functional
Mus musculus [20] = experiment: Median survival time of the non surviving mice; treated with 1.25 mg/kg of compound to mice with L1210 leukemia; 11-15; format: functional
Mus musculus [21] = experiment: Median survival time of the non surviving mice; treated with 2.5 mg/kg of compound to mice with L1210 leukemia; 17-25; format: functional
[22] = Mortality range of the mice with L1210 leukemia treated with 5 mg/kg of dose intraperitoneally with no of mice survived/no of mice treated; 0/8; format: functional; conditions: route intraperitoneal
[23] = Number of mice died/no of mice treated with 10 mg/kg of compound in aqueous solution intraperitoneally with L1210 leukemia; 1/10; format: functional; conditions: route intraperitoneal
[24] = Mortality range of the mice with L1210 leukemia treated with 1.25 mg/kg of dose intraperitoneally with no of mice survived/no of mice treated; 0/8; format: functional; conditions: route intraperitoneal
Mus musculus [25] = experiment: Mortality range of the mice with L1210 leukemia treated with 2.5 mg/kg of dose intraperitoneally with no of mice survived/no of mice treated; 0/8; format: functional; conditions: route intraperitoneal
[26] = Mortality range of the mice with L1210 leukemia treated with 0.625 mg/kg of dose intra peritoneally with no of mice survived/no of mice treated; 0/8; format: functional
[27] = Number of mice died/no of mice treated with 5 mg/kg of compound in aqueous solution intraperitoneally with L1210 leukemia; 0/10; format: functional; conditions: route intraperitoneal
Mus musculus [28] = experiment: The number of B16 melanocarcinoma mice survived after 60 days with compound in olive oil injected by a dose of 20 mg/kg intraperitoneally; 2/20; format: functional; conditions: route intraperitoneal
Mus musculus [29] = experiment: Anti tumor activity in olive oil when treated to mice with B16 melanocarcinoma with 20 mg/kg dose of compound intraperitoneally was expressed as percent of treated to control (T/C %); format: functional; conditions: route intraperitoneal
Mus musculus [30] = experiment: The number of B16 melanocarcinoma mice survived after 30 days with compound in olive oil injected by a dose of 20 mg/kg intraperitoneally; 13/20; format: functional; conditions: route intraperitoneal
Mus musculus [31] = experiment: The number of Lewis lung mice survived after 30 days with compound in olive oil injected by a dose of 20 mg/kg intraperitoneally; 18/20; format: functional; conditions: route intraperitoneal
Mus musculus [32] = experiment: The number of Lewis lung mice survived after 60 days with compound in olive oil injected by a dose of 20 mg/kg intraperitoneally; 15/20; format: functional; conditions: route intraperitoneal
Mus musculus [33] = experiment: The number of L1210 Leukemia mice survived after 60 days with compound in olive oil injected by a dose of 20 mg/kg intraperitoneally; 10/15; format: functional; conditions: route intraperitoneal
Mus musculus [34] = species on record: Mus musculus; experiment: Median survival time of the non surviving mice; there are two deaths on day 27, one death on day 29, and two deaths on day 41; format: functional, organism-based
Mus musculus [35] = experiment: Median survival time of the non surviving mice; treated with 20 mg/kg of compound in olive oil to mice with B16 Melanocarcinoma; 14-55; format: functional
Mus musculus [36] = experiment: Ratio of mice died to that of mice treated with 20 mg/kg of compound in olive oil intraperitoneally with B16 Melanocarcinoma; 0/20; format: functional; conditions: route intraperitoneal
Mus musculus [37] = experiment: Ratio of mice died to that of mice treated with 20 mg/kg of compound in olive oil intraperitoneally with L1210 leukemia tumor; 0/15; format: functional; conditions: route intraperitoneal
Mus musculus [38] = experiment: Ratio of mice died to that of mice treated with 20 mg/kg of compound in olive oil intraperitoneally with Lewis lung; 0/20; format: functional; conditions: route intraperitoneal
Mus musculus [39] = experiment: The number of L1210 Leukemia mice survived after 30 days with compound in olive oil injected by a dose of 20 mg/kg intraperitoneally; 12/15; format: functional; conditions: route intraperitoneal

Compound CO[C@H]1C[C@@H](NC(=O)N(CCCl)N=O)[C@H](O)[C@@H](C)O1 has a T/C (Mus musculus [1]) of 144%, a T/C (Mus musculus [2]) of 244% and a T/C (Mus musculus [3]) of 539%. For the same compound, the Survivals (Mus musculus [4]) was 7, the Survivals (Mus musculus [5]) was 0 and the Survivals (Mus musculus [6]) was 0. It also gave a Survivals (Mus musculus [7]) of 8, a Survivals (Mus musculus [8]) of 0 and a T/C (Mus musculus [9]) of 198%. It also gave a T/C (Mus musculus [10]) of 519%, a Median survival time (Mus musculus [11]) of 49 and a Survivals (Mus musculus [12]) of 4. For the same compound, the Survivals (Mus musculus [13]) was 4, the Survivals (Mus musculus [14]) was 0 and the T/C (Mus musculus [15]) was 118%. For the same compound, the Survivals (Mus musculus [16]) was 0, the Median survival time (Mus musculus [17]) was 18.75 and the Median survival time (Mus musculus [18]) was 48.5. For the same compound, the Median survival time (Mus musculus [19]) was 10.6, the Median survival time (Mus musculus [20]) was 12.9 and the Median survival time (Mus musculus [21]) was 21.9. The Ratio [22] was 0, the Ratio [23] was 1 and the Ratio [24] was 0. The Mortality ratio (Mus musculus [25]) was 0, the Ratio [26] was 0 and the Ratio [27] was 0.
For COC1CC(NC(=O)N(CCCl)N=O)C(O)C(CNC(=O)N(CCCl)N=O)O1 (centres undefined), the Survivals (Mus musculus [28]) was 2, the T/C (Mus musculus [29]) was 225% and the Survivals (Mus musculus [30]) was 13. It also gave a Survivals (Mus musculus [31]) of 18, a Survivals (Mus musculus [32]) of 15 and a Survivals (Mus musculus [33]) of 10. The Median survival time (Mus musculus [34]) was “there are two deaths on day 27, one death on day 29, and two deaths on day 41”, the Median survival time (Mus musculus [35]) was 31.37 and the Ratio (Mus musculus [36]) was 0. For the same compound, the Ratio (Mus musculus [37]) was 0, the Ratio (Mus musculus [38]) was 0 and the Survivals (Mus musculus [39]) was 12.
